Test results published in patent US20240316047A1, “INHIBITORS OF RNA HELICASE DHX9 AND USES THEREOF” (ACCENT THERAPEUTICS, INC., priority 2022, published 2024).

Biological target: Human recombinant DHX9 protein (Homo sapiens (Human), UniProt Q08211)
Assay: DHX9 ATPase assay (ADP-Glo)
Format: biochemical
Conditions: for IC50: read-out: DHX9 Biochemical Inflection Point

Sequence of Human recombinant DHX9 protein (Q08211 whole entry): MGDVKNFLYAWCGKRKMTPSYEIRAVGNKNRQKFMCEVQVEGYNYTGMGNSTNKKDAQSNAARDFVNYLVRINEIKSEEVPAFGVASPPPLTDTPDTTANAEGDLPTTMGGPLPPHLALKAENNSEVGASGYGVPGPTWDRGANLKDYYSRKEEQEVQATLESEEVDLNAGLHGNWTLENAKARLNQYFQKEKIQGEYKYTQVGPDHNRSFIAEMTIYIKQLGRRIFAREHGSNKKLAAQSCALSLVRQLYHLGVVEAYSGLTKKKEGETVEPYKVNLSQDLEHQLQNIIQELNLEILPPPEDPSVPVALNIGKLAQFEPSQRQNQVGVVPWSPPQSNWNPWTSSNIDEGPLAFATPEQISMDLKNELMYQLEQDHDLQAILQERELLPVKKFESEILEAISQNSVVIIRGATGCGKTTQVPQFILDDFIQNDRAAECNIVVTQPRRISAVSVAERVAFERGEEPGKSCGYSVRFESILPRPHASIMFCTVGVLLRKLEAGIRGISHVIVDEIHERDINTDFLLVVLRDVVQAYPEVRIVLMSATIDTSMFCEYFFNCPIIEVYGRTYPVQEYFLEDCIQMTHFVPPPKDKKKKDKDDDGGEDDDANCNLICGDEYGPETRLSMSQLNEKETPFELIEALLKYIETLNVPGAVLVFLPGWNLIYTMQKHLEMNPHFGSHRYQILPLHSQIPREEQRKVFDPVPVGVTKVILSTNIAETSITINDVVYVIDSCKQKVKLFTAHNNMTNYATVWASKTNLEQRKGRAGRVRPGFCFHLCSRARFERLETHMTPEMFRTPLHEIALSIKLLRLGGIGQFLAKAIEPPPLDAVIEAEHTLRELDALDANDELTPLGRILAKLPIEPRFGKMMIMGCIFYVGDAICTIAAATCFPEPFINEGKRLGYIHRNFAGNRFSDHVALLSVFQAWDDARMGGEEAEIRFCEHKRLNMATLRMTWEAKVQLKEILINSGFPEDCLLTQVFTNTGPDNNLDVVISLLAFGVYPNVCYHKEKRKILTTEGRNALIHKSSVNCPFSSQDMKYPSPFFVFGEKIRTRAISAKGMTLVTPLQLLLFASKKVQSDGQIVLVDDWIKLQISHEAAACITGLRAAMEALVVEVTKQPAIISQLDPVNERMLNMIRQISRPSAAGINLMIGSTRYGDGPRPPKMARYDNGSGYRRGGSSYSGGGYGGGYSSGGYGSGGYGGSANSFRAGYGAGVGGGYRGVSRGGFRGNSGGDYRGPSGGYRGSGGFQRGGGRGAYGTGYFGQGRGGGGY

DHX9 Biochemical Max Inhibition | IC50 | SMILES
63.8% | 307 nM | CS(=O)(=O)Nc1cc(Cl)cc(NC(=O)c2cc3cc(F)ccc3s2)c1 [Example 295]
56.7% | 335 nM | CS(=O)(=O)Nc1cc(Cl)cc(NC(=O)c2cc3ccc(Cl)cn3c2)c1 [Example 299]
58.5% | 132 nM | Cc1ccc2cc(C(=O)Nc3cc(Cl)cc(NS(C)(=O)=O)c3)cn2c1 [Example 300]
69.5% | 37.7 nM | CS(=O)(=O)Nc1cc(Cl)cc(NC(=O)c2cc3c(=O)[nH]ccn3c2)c1 [Example 301]
59.1% | 399 nM | Cc1cccc2cc(C(=O)Nc3cc(Cl)cc(NS(C)(=O)=O)c3)cn12 [Example 304]
63.8% | 95.3 nM | CS(=O)(=O)Nc1cc(Cl)cc(NC(=O)c2cc3c(F)cccn3c2)c1 [Example 305]
60.6% | 375 nM | CS(=O)(=O)Nc1cc(Cl)cc(NC(=O)c2cnn(CCc3ccccc3)c2)c1 [Example 308]
60.8% | 162 nM | CS(=O)(=O)Nc1cc(Cl)cc(NC(=O)c2cnn(C3CCCC3)c2)c1 [Example 309]
70.3% | 102 nM | CC(=O)NC1CC2(C1)CC(n1cc(C(=O)Nc3cc(Cl)cc(NS(C)(=O)=O)c3)cn1)C2 (stereo not drawn) [Example 310]
77.7% | 38.5 nM | CN1CC2(CC(n3cc(C(=O)Nc4cc(Cl)cc(NS(C)(=O)=O)c4)cn3)C2)C1 [Example 311]
66.9% | 75.3 nM | CC1(C)CC(n2cc(C(=O)Nc3cc(Cl)cc(NS(C)(=O)=O)c3)cn2)CCN1 (stereo not drawn) [Example 315]
66.6% | 205 nM | CS(=O)(=O)Nc1cc(Cl)cc(NC(=O)c2cnn(C3CCN(CC(F)(F)F)CC3)c2)c1 [Example 316]
64.4% |  | CC(C)(C)OC(=O)NC1CC2(C1)CC(n1cc(C(=O)Nc3cc(Cl)cc(NS(C)(=O)=O)c3)cn1)C2 (stereo not drawn) [Example 318]
79.2% | 13.5 nM | COc1cccc2sc(C(=O)Nc3cc(Cl)cc(NS(C)(=O)=O)c3)cc12 [Example 321]
64.5% | 8110 nM | CS(=O)(=O)Nc1cc(Cl)cc(NC(=O)c2cc3cc(C(F)(F)F)ccc3s2)c1 [Example 326]
67.6% | 422 nM | Cc1cc(C)c2cc(C(=O)Nc3cc(Cl)cc(NS(C)(=O)=O)c3)cn2c1 [Example 328]
57.8% | 194 nM | Cc1ccc2sc(C(=O)Nc3cc(Cl)cc(NS(C)(=O)=O)c3)cc2c1 [Example 331]
84% | 9.6 nM | Cc1sc(C(=O)Nc2cc(Cl)cc(NS(C)(=O)=O)c2)cc1-c1ncc(F)cn1 [Example 336]
65.6% |  | COc1cnc(-c2csc(C(=O)Nc3cc(Cl)cc(NS(C)(=O)=O)c3)c2)nc1 [Example 340]
73.6% | 33.1 nM | CCOc1cnc(-c2csc(C(=O)Nc3cc(Cl)cc(NS(C)(=O)=O)c3)c2)nc1 [Example 342]
74.1% | 21 nM | CCS(=O)(=O)Nc1cc(Cl)cc(NC(=O)c2cc(-c3ncc(F)cn3)c(C)s2)c1 [Example 344]
72.1% | 34 nM | CCS(=O)(=O)Nc1cc(Cl)cc(NC(=O)c2cc(-c3ncc(F)cc3F)c(C)s2)c1 [Example 347]
74.6% | 31.8 nM | Cc1cc(F)cnc1-c1cc(C(=O)Nc2cc(Cl)cc(NS(C)(=O)=O)c2)sc1C [Example 348]
80.6% | 15.5 nM | COc1cc(F)cnc1-c1cc(C(=O)Nc2cc(Cl)cc(NS(C)(=O)=O)c2)sc1C [Example 351]
91.7% | 85.6 nM | Cc1sc(C(=O)Nc2cc(Cl)cc(NS(C)(=O)=O)c2)cc1-c1ncc(C(F)(F)F)cn1 [Example 357]

Further lines, the molecule ahead of its results:

SMILES | DHX9 Biochemical Max Inhibition | IC50
CS(=O)(=O)Nc1cc(Cl)cc(NC(=O)c2cc3c(F)cccc3s2)c1 [Example 296] | 69.9% | 125 nM
CS(=O)(=O)Nc1cc(Cl)cc(NC(=O)c2cc3cccc(F)c3s2)c1 [Example 297] | 57% | 997 nM
CS(=O)(=O)Nc1cc(Cl)cc(NC(=O)c2cc3cc(Cl)ccc3s2)c1 [Example 298] | 58.8% | 4210 nM
CS(=O)(=O)Nc1cc(Cl)cc(NC(=O)c2cc3c(C(F)(F)F)cccn3c2)c1 [Example 302] | 54.6% | 640 nM
COc1cccc2cc(C(=O)Nc3cc(Cl)cc(NS(C)(=O)=O)c3)sc12 [Example 303] | 57.2% | 4020 nM
CN1CCC(n2cc(C(=O)Nc3cc(Cl)cc(NS(C)(=O)=O)c3)cn2)CC1=O (stereo not drawn) [Example 307] | 70.4% | 143 nM
CS(=O)(=O)Nc1cc(Cl)cc(NC(=O)c2cnn(C3CC4(C3)CN(CC(F)(F)F)C4)c2)c1 [Example 312] | 69.2% | 220 nM
CC(=O)N1CC2(CC(n3cc(C(=O)Nc4cc(Cl)cc(NS(C)(=O)=O)c4)cn3)C2)C1 [Example 313] | 63.6% | 147 nM
CC(=O)N1CCC(n2cc(C(=O)Nc3cc(Cl)cc(NS(C)(=O)=O)c3)cn2)CC1 [Example 317] | 63.8% | 272 nM
CS(=O)(=O)Nc1cc(Cl)cc(NC(=O)c2cnn(C3CC4(CC(N)C4)C3)c2)c1 (stereo not drawn) [Example 319] | 70.1% | 57.7 nM
Cc1cc(C(=O)Nc2cc(Cl)cc(NS(C)(=O)=O)c2)cn1-c1ncc(N2CCOCC2)cc1F [Example 320] | 72.2% | 10.5 nM
Cc1cn2cc(C(=O)Nc3cc(Cl)cc(NS(C)(=O)=O)c3)cc2c(C)n1 [Example 322] | 65.6% | 215 nM
CS(=O)(=O)Nc1cc(Cl)cc(NC(=O)c2cc3c(C(F)(F)F)cccc3s2)c1 [Example 323] | 58.2% | 282 nM
CS(=O)(=O)Nc1cc(Cl)cc(NC(=O)c2cc3c(F)c(F)ccc3s2)c1 [Example 324] | 63.1% | 164 nM
CS(=O)(=O)Nc1cc(Cl)cc(NC(=O)c2cc3c(F)ccc(F)c3s2)c1 [Example 325] | 63.9% | 591 nM
COc1ccc2cc(C(=O)Nc3cc(Cl)cc(NS(C)(=O)=O)c3)sc2c1 [Example 327] | 63.3% | 264 nM
Cc1cccn2cc(C(=O)Nc3cc(Cl)cc(NS(C)(=O)=O)c3)cc12 [Example 329] | 66.5% | 139 nM
CS(=O)(=O)Nc1cc(Cl)cc(NC(=O)c2cc3cnccn3c2)c1 [Example 330] | 61.9% | 88 nM
CS(=O)(=O)Nc1cc(Cl)cc(NC(=O)c2cc3c(Cl)cccc3s2)c1 [Example 332] | 61.5% | 4830 nM

SMILES | DHX9 Biochemical Max Inhibition | IC50
Cc1cccnc1-c1cc(C(=O)Nc2cc(F)cc(NS(C)(=O)=O)c2)sc1C [Example 333] | 78.1% | 35.1 nM
Cc1cccnc1-c1csc(C(=O)Nc2cc(F)cc(NS(C)(=O)=O)c2)c1 [Example 334] | 81.5% | 10.9 nM
CCOc1cnc(-c2cc(C(=O)Nc3cc(Cl)cc(NS(C)(=O)=O)c3)sc2C)nc1 [Example 335] | 79% | 10.7 nM
CS(=O)(=O)Nc1cc(Cl)cc(NC(=O)c2cc(-c3ncc(F)cn3)cs2)c1 [Example 338] | 78% | 15.7 nM
CCOc1ccc(-c2csc(C(=O)Nc3cc(Cl)cc(NS(C)(=O)=O)c3)c2)nc1 [Example 339] | 71% | 10.7 nM
COc1cnc(-c2cc(C(=O)Nc3cc(Cl)cc(NS(C)(=O)=O)c3)sc2C)nc1 [Example 341] | 83.05% | 6.2 nM
CCS(=O)(=O)Nc1cc(Cl)cc(NC(=O)c2cc(-c3ncc(F)cn3)cs2)c1 [Example 343] | 54.4% | 55.2 nM
Cc1sc(C(=O)Nc2cc(Cl)cc(NS(C)(=O)=O)c2)cc1-c1ncc(OC(F)F)cn1 [Example 345] | 77.1% | 33.6 nM
CCS(=O)(=O)Nc1cc(Cl)cc(NC(=O)c2cc(-c3ccc(F)cn3)c(C)s2)c1 [Example 346] | 73% | 25.7 nM
Cc1sc(C(=O)Nc2cc(Cl)cc(NS(C)(=O)=O)c2)cc1-c1ncc(F)cc1F [Example 349] | 76.4% | 23.7 nM
CCS(=O)(=O)Nc1cc(Cl)cc(NC(=O)c2cc(-c3ncc(F)cc3C)c(C)s2)c1 [Example 350] | 67.1% | 
COc1ccc(-c2cc(C(=O)Nc3cc(Cl)cc(NS(C)(=O)=O)c3)sc2C)nc1 [Example 352] | 84.1% | 
CCS(=O)(=O)Nc1cc(Cl)cc(NC(=O)c2cc(-c3ncc(OC)cn3)c(C)s2)c1 [Example 353] | 69.2% | 24.2 nM
CCS(=O)(=O)Nc1cc(Cl)cc(NC(=O)c2cc(-c3ncc(F)cc3OC)c(C)s2)c1 [Example 354] | 75.5% | 13.4 nM
CCS(=O)(=O)Nc1cc(Cl)cc(NC(=O)c2cc(-c3ncc(F)cc3Cl)c(C)s2)c1 [Example 355] | 69.9% | 34.1 nM
COc1cnc(-c2cc(C(=O)Nc3cc(Cl)cc(NS(C)(=O)=O)c3)sc2C)c(F)c1 [Example 358] | 84.3% | 38.4 nM
Cc1sc(C(=O)Nc2cc(Cl)cc(NS(C)(=O)=O)c2)cc1-c1ncc(F)cc1Cl [Example 359] | 68.3% | 54.9 nM
CCS(=O)(=O)Nc1cc(Cl)cc(NC(=O)c2cc(-c3ncc(OC)cc3F)c(C)s2)c1 [Example 360] | 56.5% | 40.9 nM
